{"source": "patent US20260124203A1", "about": "“CHEMICAL SYNTHETIC LETHALITY FOR ANTIMICROBIAL THERAPY” (priority 2024, published 2026)", "target": "T1, FolE2 (Burkholderia thailandensis, UniProt Q2T7N4)", "T1 construct": "fused on or other part: N-terminal 6xHis tag from pET-28b(+) (NdeI/SacI)", "test": "biochemical", "design": "species or system B. thailandensis", "settings": "read-out: apparent Ki"}
{"smiles": "C=C1CC[C@H]2C(=C)CC[C@H]3C(=C)C(=O)O[C@@H]3[C@@H]12", "note": "[DHL, dehydrocostus lactone]", "values": [{"measurement": "Ki", "result": "87 ± 21", "unit": "µM"}]}
